EC50 and IC50 data for ten compounds are collected here from patent publication US11478451B1, “Macrocyclic chlorine substituted indole derivatives” (Bayer Aktiengesellschaft, priority 2017, dated 2022).

Where a name gives a salt, the structure may show the parent alone. Read-outs that look alike come from different tables or passages of the source.

For data set [1], the system named is SUDHL5 cells. Put plainly: Induction of caspase-3/7 activity (Caspase-Glo 3/7), SUDHL5. The format is cell-based. The note with it: EC50, median, SUDHL5, 3 h treatment. The essentials:
(§1)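 DLBCL lines were exposed to test compounds for 3 h at 37 °C in a humidified incubator, then caspase-3/7 activity was measured with Caspase-Glo 3/7 reagent. Medium-only background was subtracted from all readings.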

Data set [2] has as its system SUDHL10 cells. In words: Induction of caspase-3/7 activity (Caspase-Glo 3/7), SUDHL10. The format is cell-based. The note with it: EC50, median, SUDHL10, 3 h treatment. The essentials:
as §1

Data set [3] concerns SUDHL5 cells. Put plainly: Antiproliferation assay (CellTiter-Glo, 72 h), SUDHL5. Type of data set: cell-based. The note with it: IC50, median, SUDHL5, 72 h, read-out: Antiproli SUDHL5 [M] (median). The essentials:
(§2)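 Cells were exposed to compounds for 72 h at 37 °C in a humidified incubator, with rim wells excluded. Viability was read by CellTiter-Glo luminescence after a 10 min incubation. A parallel day 0 plate, read the same way, gave the time-zero baseline.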
Background: ATP-based viability assays read luminescence as a measure of living cells.

The subject of another data set is AMO-1 cells. Put plainly: Antiproliferation assay (CellTiter-Glo, 72 h), AMO-1. Particulars: IC50, median, AMO-1, 72 h, read-out: Antiproli AMO-1 [M] median. Type of data set: cell-based. The essentials:
as §2

The subject of the next data set is HMC-1-8 cells. Put plainly: Antiproliferation assay (CellTiter-Glo, 72 h), HMC-1-8. Particulars: IC50, median, HMC-1-8, 72 h, read-out: Antiproli HMC-1-8 [M] median. The format is cell-based. Put shortly: as §2
Data set [4] relates to SUDHL5 cells. In words: Induction of cytotoxicity (CellTiter-Glo, 5 h), SUDHL5. The note with it: SUDHL5, 5 h.
Protocol: Therefore, cytotoxicity assays were run in parallel in SUDHL5 and SUDHL10 cells.
The different cell lines were plated in culture medium (RPMI 1640 [GIBCO #22400-089] supplemented with 10% Fetal Bovine Serum) at a density of 3,300 cells in 30 μL/well in a sterile, solid black, flat bottom, polystyrene, TC-treated 384-well microplate (Corning #3571) using Multidrop Combi Reagent Dispenser. As a control, medium without cells was also added to the plate. Cells were incubated in a humidified incubator at 37° C. overnight. […] Rim wells were excluded. The cells were incubated for 5 h hours in a humidified incubator at 37° C. After this incubation, 30 μL of CellTiter-Glo® Luminescent Cell Viability reagent (Promega, G7573) was added to each well using the Multidrop Combi Reagent Dispenser, followed by 15 min incubation on a shaker at room temperature. Finally, luminescence was read at 0.1 ms, with a gain of 3000 using the PHERAstar FS microplate reader (BMG Labtech).
Data set [5] relates to SUDHL10 cells. In words: Induction of cytotoxicity (CellTiter-Glo, 5 h), SUDHL10. The note with it: SUDHL10, 5 h.
[6] abbreviates: Homo sapiens, SU-DHL-5, 5 h, read-out: Cytotox SUDHL5 [M] (median), IC50, median.
Setting [7] is: Homo sapiens, SU-DHL10, 5 h, read-out: Cytotox SUDHL10 [M] (median), IC50, median.
[8] abbreviates: read-out: Cytotox SUDHL5 [M] (median), IC50, median.
[9] abbreviates: read-out: Cytotox SUDHL10 [M] (median), IC50, median.

Regarding `CCc1c2c(nn1C)CCCN(CC(F)(F)C(F)F)CCn1c(C(=O)O)c(CCCOc3cccc4cc(F)ccc34)c3ccc(Cl)c-2c31` (racemic) [Example 123, (rac)-4-chloro-3-ethyl-7-{3-[(6-fluoro-1-naphthyl)oxy]propyl}-2-methyl-12-(2,2,3,3-tetrafluoropropyl)-10,11,12,13,14,15-hexahydro-2H-pyrazolo[3′,4′:8,9][1,4]diazacycloundecino[10,11,1-hi]indole-8-carboxylic acid], the EC50 – broadly, the concentration at which the effect is half-maximal – in the data set with SUDHL5 cells [1] (Homo sapiens, SU-DHL-5, 3 h) worked out at 470 nM; in the data set on SUDHL10 cells [2] (Homo sapiens, SU-DHL10, 3 h), 1100 nM. The IC50 was 2.2e-06 M in the data set on SUDHL5 cells [3] (Homo sapiens, SU-DHL-5, 72 h); 7.7e-07 M in the data set on AMO-1 cells (Homo sapiens, AMO1, 72 h); 3.1e-06 M in the data set with HMC-1-8 cells (72 h); 6.6e-07 M in the data set on SUDHL5 cells [4] (setting [6]); 1.2e-06 M with SUDHL10 cells [5] (setting [7]).
For `CCc1c2c(nn1C)COCCC(F)(F)Cn1c(C(=O)O)c(CCCOc3cccc4cc(F)ccc34)c3ccc(Cl)c-2c31` (single isomer, unassigned) [Example 97, (−)-4-chloro-3-ethyl-11,11-difluoro-7-{3-[(6-fluoronaphthalen-1-yl)oxy]propyl}-2-methyl-2,10,11,12,13,15-hexahydropyrazolo[4′,3′:9,10][1,6]oxazacycloundecino[8,7,6-hi]indole-8-carboxylic acid], the EC50 in the data set on SUDHL5 cells [1] (listed as 097) was found to be 320 nM; in the data set on SUDHL10 cells [2] (listed as 097) it was 450 nM. The IC50 with SUDHL5 cells [3] (listed as 097) was found to be 5.5e-07 M; in the data set with AMO-1 cells (listed as 097), 2.2e-07 M; with HMC-1-8 cells (listed as 097), 2.2e-06 M; in the data set on SUDHL5 cells [4] (read-out: Cytotox SUDHL5 [M] (median), IC50, median, listed as 097), 4.4e-07 M; with SUDHL10 cells [5] (read-out: Cytotox SUDHL10 [M] (median), IC50, median, listed as 097) it was 4.2e-07 M.
Take `CCc1c2c(nn1C)CCCCCCn1c(C(=O)O)c(CCCOc3cccc4ccccc34)c3ccc(Cl)c-2c31` (single isomer, unassigned; enantiomer 2) [Example 53, (−) 4-chloro-3-ethyl-2-methyl-7-{3-[(naphthalen-1-yl)oxy]propyl}-10,11,12,13,14,15-hexahydro-2H-pyrazolo[4′,3′:4,5]azacycloundecino[3,2,1-hi]indole-8-carboxylic acid-N-ethylethanamine salt—Enantiomer 2]: the EC50 in the data set with SUDHL5 cells [1] is 660 nM; in the data set with SUDHL10 cells [2], 700 nM. Besides, the IC50 was 7.4e-07 M in the data set with SUDHL5 cells [3]; 1.5e-06 M with AMO-1 cells; 6.9e-06 M with HMC-1-8 cells (72 h); 4.8e-07 M with SUDHL5 cells [4] (setting [8]); 9.7e-07 M in the data set with SUDHL10 cells [5] (setting [9]).
On to `CCc1c2c(nn1C)CN(C)CCCn1c(C(=O)O)c(CCCOc3cccc4cc(F)ccc34)c3ccc(Cl)c-2c31` [Example 113, (+)-12-chloro-11-ethyl-1-{3-[(6-fluoronaphthalen-1-yl)oxy]propyl}-7,10-dimethyl-4,5,6,7,8,10-hexahydropyrazolo[3′,4′:7,8][1,5]diazecino[9,10,1-hi]indole-2-carboxylic acid N-ethylethanamine salt], for which the EC50 with SUDHL5 cells [1] was 270 nM; with SUDHL10 cells [2] it was 360 nM. For the same compound, the IC50 with SUDHL5 cells [3] amounted to 2.1e-06 M; in the data set with AMO-1 cells it was 3.2e-07 M; in the data set on HMC-1-8 cells it was 3.7e-06 M; with SUDHL5 cells [4] (setting [8]), 3e-07 M; with SUDHL10 cells [5] (setting [9]), 6.5e-07 M.
In the case of `Cc1c2c(nn1CCCN1CCN(C)CC1)COCCCCn1c(C(=O)O)c(CCCOc3cccc4ccccc34)c3ccc(Cl)c-2c31` (racemic) [Example 48, (rac)-4-chloro-3-methyl-2-[3-(4-methylpiperazin-1-yl)propyl]-7-{3-[(naphthalen-1-yl)oxy]propyl}-2,10,11,12,13,15-hexahydropyrazolo[4′,3′:9,10][1,6]oxazacycloundecino[8,7,6-hi]indole-8-carboxylic acid], the EC50 in the data set with SUDHL5 cells [1] (Homo sapiens, SU-DHL-5, 3 h) came out at 160 nM; with SUDHL10 cells [2] (Homo sapiens, SU-DHL10, 3 h), 400 nM. Further, the IC50 came out at 2e-07 M with SUDHL5 cells [3] (Homo sapiens, SU-DHL-5, 72 h); 1.8e-07 M in the data set on AMO-1 cells (Homo sapiens, AMO1, 72 h); 8.2e-07 M in the data set on HMC-1-8 cells (72 h); 1.8e-07 M in the data set with SUDHL5 cells [4] (setting [6]); 3e-07 M in the data set with SUDHL10 cells [5] (setting [7]).
`Cc1c2c(nn1C)COCC(F)(F)CCn1c(C(=O)O)c(CCCOc3cccc4ccccc34)c3ccc(Cl)c-2c31` (racemic) [Example 55, (rac)-4-chloro-12,12-difluoro-2,3-dimethyl-7-{3-[(naphthalen-1-yl)oxy]propyl}-2,10,11,12,13,15-hexahydropyrazolo[4′,3′:9,10][1,6]oxazacycloundecino[8,7,6-hi]indole-8-carboxylic acid]: the values for the EC50 with SUDHL5 cells [1] and in the data set on SUDHL10 cells [2] were 600 nM and 520 nM, respectively. In addition, the IC50 with SUDHL5 cells [3] amounted to 4.3e-07 M; with AMO-1 cells it was 1.4e-06 M; in the data set with HMC-1-8 cells (72 h), 2.2e-06 M; in the data set on SUDHL5 cells [4] (setting [8]), 6.7e-07 M; in the data set with SUDHL10 cells [5] (setting [9]), 7.4e-07 M.
Regarding `Cc1c2c(nn1C)COCCC(F)(F)Cn1c(C(=O)O)c(CCCOc3cccc4ccccc34)c3ccc(Cl)c-2c31` [Example 95, 4-chloro-11,11-difluoro-2,3-dimethyl-7-{3-[(naphthalen-1-yl)oxy]propyl}-2,10,11,12,13,15-hexahydropyrazolo[4′,3′:9,10][1,6]oxazacycloundecino[8,7,6-hi]indole-8-carboxylic acid N-ethylethanamine salt], the EC50 in the data set with SUDHL5 cells [1] (listed as 095) stood at 550 nM; in the data set on SUDHL10 cells [2] (listed as 095), 870 nM. The IC50 with SUDHL5 cells [3] (Homo sapiens, SU-DHL-5, 72 h) turned out to be 1e-06 M; in the data set with AMO-1 cells (Homo sapiens, AMO1, 72 h), 9.7e-07 M; with HMC-1-8 cells (listed as 095), 7.2e-06 M; in the data set on SUDHL5 cells [4] (read-out: Cytotox SUDHL5 [M] (median), IC50, median, listed as 095) it was 7.7e-07 M; with SUDHL10 cells [5] (read-out: Cytotox SUDHL10 [M] (median), IC50, median, listed as 095), 4.5e-07 M.
As for `CCc1c2c(nn1C)CCCN(CCCCOC(C)=O)CCn1c(C(=O)O)c(CCCOc3cccc4cc(F)ccc34)c3ccc(Cl)c-2c31` (racemic) [Example 121, (rac)-12-(4-acetoxybutyl)-4-chloro-3-ethyl-7-{3-[(6-fluoro-1-naphthyl)oxy]propyl}-2-methyl-10,11,12,13,14,15-hexahydro-2H-pyrazolo[3′,4′:8,9][1,4]diazacycloundecino[10,11,1-hi]indole-8-carboxylic acid], the EC50 in the data set with SUDHL5 cells [1] (Homo sapiens, SU-DHL-5, 3 h) came to 1200 nM; in the data set with SUDHL10 cells [2] (Homo sapiens, SU-DHL10, 3 h) it was 1700 nM. Besides, the IC50 came out at 9e-07 M with SUDHL5 cells [3] (Homo sapiens, SU-DHL-5, 72 h); 1.3e-06 M in the data set on AMO-1 cells (Homo sapiens, AMO1, 72 h); 9.9e-06 M in the data set with HMC-1-8 cells (72 h); 1.3e-06 M in the data set with SUDHL5 cells [4] (setting [6]); 1.9e-06 M in the data set on SUDHL10 cells [5] (setting [7]).
For the compound `Cc1c2c(nn1C)COCC(F)(F)CCn1c(C(=O)O)c(CCCOc3cccc4cc(F)ccc34)c3ccc(Cl)c-2c31` (single isomer, unassigned) [Example 92, 4-chloro-12,12-difluoro-7-{3-[(6-fluoronaphthalen-1-yl)oxy]propyl}-2,3-dimethyl-2,10,11,12,13,15-hexahydropyrazolo[4′,3′:9,10][1,6]oxazacycloundecino[8,7,6-hi]indole-8-carboxylic acid], the EC50 was determined as 280 nM in the data set with SUDHL5 cells [1] (Homo sapiens, SU-DHL-5, 3 h) and 590 nM in the data set on SUDHL10 cells [2] (Homo sapiens, SU-DHL10, 3 h). In addition, the IC50 amounted to 8.2e-07 M in the data set with SUDHL5 cells [3] (Homo sapiens, SU-DHL-5, 72 h); 5.4e-07 M with AMO-1 cells (Homo sapiens, AMO1, 72 h); 6.8e-06 M with HMC-1-8 cells (72 h); 3.4e-07 M with SUDHL5 cells [4] (setting [6]); 8.1e-07 M with SUDHL10 cells [5] (setting [7]).
Turning to `CCc1c2c(nn1C)CN(C)CCC(F)(F)Cn1c(C(=O)O)c(CCCOc3cccc4cc(F)ccc34)c3ccc(Cl)c-2c31` (racemic) [Example 129, (rac)-4-chloro-3-ethyl-11,11-difluoro-7-{3-[(6-fluoronaphthalen-1-yl)oxy]propyl}-2,14-dimethyl-10,11,12,13,14,15-hexahydro-2H-pyrazolo[3′,4′:8,9][1,6]diazacycloundecino[10,11,1-hi]indole-8-carboxylic acid], the EC50 was 300 nM in the data set on SUDHL5 cells [1] (Homo sapiens, SU-DHL-5, 3 h) and 740 nM in the data set on SUDHL10 cells [2] (Homo sapiens, SU-DHL10, 3 h). Further, the IC50 in the data set on SUDHL5 cells [3] (Homo sapiens, SU-DHL-5, 72 h) was 4.5e-07 M; in the data set on AMO-1 cells (Homo sapiens, AMO1, 72 h), 8.3e-07 M; in the data set on HMC-1-8 cells (72 h), 5.2e-06 M; in the data set with SUDHL5 cells [4] (setting [6]) it was 3.3e-07 M; with SUDHL10 cells [5] (setting [7]), 8.9e-07 M.
